The target in one experiment is Cannabinoid receptor 2 (Homo sapiens, UniProt P34972). The experiment can be described thus: Inverse agonist activity at human CB2 receptor expressed in HEK293 cells assessed as forskolin-stimulated cAMP accumulation measured after 30 mins by HTRF assay. The format is functional, cell-based. Background: Cyclic AMP is a second messenger, typically raised through Gs and lowered through Gi signalling.

For another experiment, the target named is Cannabinoid receptor 1 (Homo sapiens, UniProt P21554). As to the kind of experiment: Inverse agonist activity at human CB1 receptor expressed in HEK293 cells assessed as forskolin-stimulated cAMP accumulation measured after 30 mins by HTRF assay. The format is functional, cell-based.

Some results are limits rather than exact numbers.

Chain of Cannabinoid receptor 2 (P34972 whole entry): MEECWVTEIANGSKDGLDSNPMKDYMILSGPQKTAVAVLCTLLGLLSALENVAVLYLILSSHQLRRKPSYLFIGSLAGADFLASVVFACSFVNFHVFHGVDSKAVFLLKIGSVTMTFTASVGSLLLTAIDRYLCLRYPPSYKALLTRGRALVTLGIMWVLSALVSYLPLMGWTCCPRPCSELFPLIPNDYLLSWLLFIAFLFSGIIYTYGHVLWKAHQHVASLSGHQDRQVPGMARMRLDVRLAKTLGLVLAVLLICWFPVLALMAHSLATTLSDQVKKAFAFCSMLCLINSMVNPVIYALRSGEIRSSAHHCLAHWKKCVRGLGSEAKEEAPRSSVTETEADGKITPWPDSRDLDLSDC
Chain of Cannabinoid receptor 1 (P21554 whole entry): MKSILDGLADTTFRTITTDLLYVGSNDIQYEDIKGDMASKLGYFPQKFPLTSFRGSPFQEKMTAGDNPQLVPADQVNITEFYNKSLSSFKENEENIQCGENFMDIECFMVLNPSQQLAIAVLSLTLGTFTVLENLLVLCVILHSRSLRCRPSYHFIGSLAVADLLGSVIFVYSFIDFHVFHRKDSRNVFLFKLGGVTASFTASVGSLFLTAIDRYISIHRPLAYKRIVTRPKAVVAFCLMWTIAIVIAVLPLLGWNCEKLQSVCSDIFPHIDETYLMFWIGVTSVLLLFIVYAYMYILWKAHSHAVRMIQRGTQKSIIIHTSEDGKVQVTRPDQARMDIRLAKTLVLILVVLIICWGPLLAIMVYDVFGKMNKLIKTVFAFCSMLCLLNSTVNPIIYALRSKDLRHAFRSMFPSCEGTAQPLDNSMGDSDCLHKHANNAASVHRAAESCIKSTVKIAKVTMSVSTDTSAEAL

As a reminder, the EC50 is the concentration giving half of the maximal effect. Take `O=C(O)c1ccccc1S(=O)(=O)N1CCC(Nc2cnnc3ccc(C(c4ccc(Cl)cc4)c4ccc(Cl)cc4)cc23)CC1`: the EC50 at Cannabinoid receptor 2 was over 10 µM. Still for that read-out and setting: the value for `O=S(=O)(N1CCC(Nc2cnnc3ccc(C(O)(c4ccc(Cl)cc4)c4ccc(Cl)cc4)cc23)CC1)C(F)(F)F` was over 10 µM. For `Clc1ccc(C(c2ccc(Cl)cc2)c2ccc3nncc(NC4CCC(Nc5ccccc5)CC4)c3c2)cc1` (centres undefined), the EC50 on Cannabinoid receptor 1 is 0.099 µM; on Cannabinoid receptor 2 it was over 10 µM.

These data come from ChEMBL document CHEMBL4715810, “Treatment of Metabolic Disorders with CB-1 Receptor Inverse Agonists” (ACS Med Chem Lett, 2016).
